Biological target: T1, human mGlu5a receptor (Homo sapiens, UniProt P41594)
T1 construct: expressed in transfected cells
Assay: Intracellular Ca2+ mobilization assay (mGlu5 PAM)
Type: cell-based
Details: for EC50: HEK-293 cells stably transfected with human mGlu5a, L-glutamate added at EC20 after pre-incubation with test compound, read-out: EC50 (nM) mGlu5PAM; for Emax: maximal response in % of the maximal stimulatory effect obtained with saturating concentrations of L-glutamate, read-out: Eff. (%)
Experimental: A monoclonal HEK-293 cell line stably transfected with a cDNA encoding for the human mGlu5a receptor was generated; for the work with mGlu5 Positive Allosteric Modulators (PAMs), a cell line with low receptor expression levels and low constitutive receptor activity was selected to allow the differentiation of agonistic versus PAM activity. Cells were cultured according to standard protocols (Freshney, 2000) in Dulbecco's Modified Eagle Medium with high glucose supplemented with 1 mM glutamine, 10% (vol/vol) heat-inactivated bovine calf serum, Penicillin/Streptomycin, 50 μg/ml hygromycin and 15 μg/ml blasticidin (all cell culture reagents and antibiotics from Invitrogen, Basel, Switzerland).
About 24 hrs before an experiment, 5×10^4 cells/well were seeded in poly-D-lysine coated, black/clear-bottomed 96-well plates. The cells were loaded with 2.5 μM Fluo-4AM in loading buffer (1×HBSS, 20 mM HEPES) for 1 hr at 37° C. and washed five times with loading buffer. The cells were transferred into a Functional Drug Screening System 7000 (Hamamatsu, Paris, France), and 11 half logarithmic serial dilutions of test compound at 37° C. were added and the cells were incubated for 10-30 min, with on-line recording of fluorescence. Following this pre-incubation step, the agonist L-glutamate was added to the cells at a concentration corresponding to EC20 (typically around 80 μM) with on-line recording of fluorescence; in order to account for day-to-day variations in the responsiveness of cells, the EC20 of glutamate was determined immediately ahead of each experiment by recording of a full dose-response curve of glutamate.
Responses were measured as peak increase in fluorescence minus basal (i.e. fluorescence without addition of L-glutamate), normalized to the maximal stimulatory effect obtained with saturating concentrations of L-glutamate. Graphs were plotted with the % maximal stimulatory using XLfit, a curve fitting program that iteratively plots the data using Levenburg Marquardt algorithm. The single site competition analysis equation used was y=A+((B−A)/(1+((x/C)D))), where y is the % maximal stimulatory effect, A is the minimum y, B is the maximum y, C is the EC50, x is the log 10 of the concentration of the competing compound and D is the slope of the curve (the Hill Coefficient). From these curves the EC50 (concentration at which half maximal stimulation was achieved), the Hill coefficient as well as the maximal response in % of the maximal stimulatory effect obtained with saturating concentrations of L-glutamate were calculated.
A depression of the signal observed after addition of the EC20 concentration of L-glutamate was indicative of an inhibitory activity of the test compound.

T1 sequence (P41594 21-1180 isoform P41594-2 limits assumed): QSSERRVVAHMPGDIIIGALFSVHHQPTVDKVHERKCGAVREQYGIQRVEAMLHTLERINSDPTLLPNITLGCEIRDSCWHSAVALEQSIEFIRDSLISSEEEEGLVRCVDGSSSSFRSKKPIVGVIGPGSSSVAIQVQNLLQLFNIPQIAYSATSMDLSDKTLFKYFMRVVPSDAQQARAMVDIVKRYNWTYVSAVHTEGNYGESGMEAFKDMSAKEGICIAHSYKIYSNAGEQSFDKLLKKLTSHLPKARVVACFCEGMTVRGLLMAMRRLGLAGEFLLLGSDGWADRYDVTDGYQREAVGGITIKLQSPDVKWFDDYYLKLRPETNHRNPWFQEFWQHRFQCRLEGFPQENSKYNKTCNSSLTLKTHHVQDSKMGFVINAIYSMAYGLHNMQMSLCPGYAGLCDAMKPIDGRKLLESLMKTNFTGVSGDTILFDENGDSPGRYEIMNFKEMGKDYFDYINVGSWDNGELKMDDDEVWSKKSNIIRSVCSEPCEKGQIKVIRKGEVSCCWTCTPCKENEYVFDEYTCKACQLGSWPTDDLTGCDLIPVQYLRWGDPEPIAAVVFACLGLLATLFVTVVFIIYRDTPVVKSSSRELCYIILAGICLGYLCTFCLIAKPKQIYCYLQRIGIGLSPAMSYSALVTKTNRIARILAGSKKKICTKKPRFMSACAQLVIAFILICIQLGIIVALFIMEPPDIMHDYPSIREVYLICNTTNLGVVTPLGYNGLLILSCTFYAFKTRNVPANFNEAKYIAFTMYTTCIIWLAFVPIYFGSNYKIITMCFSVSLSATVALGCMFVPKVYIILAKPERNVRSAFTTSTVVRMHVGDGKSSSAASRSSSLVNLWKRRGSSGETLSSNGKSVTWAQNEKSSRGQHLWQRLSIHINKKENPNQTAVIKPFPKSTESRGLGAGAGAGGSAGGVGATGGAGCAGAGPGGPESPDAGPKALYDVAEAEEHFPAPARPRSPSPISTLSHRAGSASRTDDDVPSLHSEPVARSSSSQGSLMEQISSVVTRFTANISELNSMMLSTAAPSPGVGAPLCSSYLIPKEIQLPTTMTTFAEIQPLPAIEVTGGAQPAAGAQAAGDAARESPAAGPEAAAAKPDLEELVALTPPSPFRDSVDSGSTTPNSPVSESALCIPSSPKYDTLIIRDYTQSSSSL

## CC1(C)CC(=O)N(c2ccc(C#Cc3ccccc3)nc2)C1 [Example 1, 4,4-Dimethyl-1-(6-phenylethynyl-pyridin-3-yl)-pyrrolidin-2-one]
  EC50: 49 nM
  Emax: 75%

## CC1(C)CCN(c2ccc(C#Cc3ccccc3)nc2)C(=O)O1 [Example 2, 6,6-Dimethyl-3-(6-phenylethynyl-pyridin-3-yl)-[1,3]oxazinan-2-one]
  EC50: 96 nM
  Emax: 85%

## CN1C(=O)N(c2ccc(C#Cc3ccccc3)nc2)CC1(C)C [Example 3, 3,4,4-Trimethyl-1-(6-phenylethynyl-pyridin-3-yl)-imidazolidin-2-one]
  EC50: 15 nM
  Emax: 45%

## CN1C(=O)N(c2ccc(C#Cc3ccc(F)cc3)nc2)CC1(C)C [Example 4, 1-[6-(4-Fluoro-phenylethynyl)-pyridin-3-yl]-3,4,4-trimethyl-imidazolidin-2-one]
  EC50: 50 nM
  Emax: 44%

## CN1C(=O)N(c2ccc(C#Cc3cccc(F)c3)nc2)CC1(C)C [Example 5, 1-[6-(3-Fluoro-phenylethynyl)-pyridin-3-yl]-3,4,4-trimethyl-imidazolidin-2-one]
  EC50: 19 nM
  Emax: 42%

## CN1C(=O)N(c2ccc(C#Cc3cccnc3)nc2)CC1(C)C [Example 6, 3,4,4-Trimethyl-1-(6-pyridin-3-ylethynyl-pyridin-3-yl)-imidazolidin-2-one]
  EC50: 241 nM
  Emax: 36%

## CC1(C)CC(=O)N(c2ccc(C#Cc3cccc(F)c3)nc2)C1 [Example 7, 1-[6-(3-Fluoro-phenylethynyl)-pyridin-3-yl]-4,4-dimethyl-pyrrolidin-2-one]
  EC50: 39 nM
  Emax: 62%

## CC1(C)CC(=O)N(c2ccc(C#Cc3ccccc3)nc2)N1 [Example 8, 5,5-Dimethyl-2-(6-phenylethynyl-pyridin-3-yl)-pyrazolidin-3-one]
  EC50: 62 nM
  Emax: 56%

## CC1(C)CC(=O)N(c2cnc(C#Cc3ccccc3)nc2)C1 [Example 9]
  EC50: 36 nM
  Emax: 39%

## CCN1C(=O)N(c2cnc(C#Cc3ccccc3)nc2)CC1(C)C [Example 11, 3-Ethyl-4,4-dimethyl-1-(2-phenylethynyl-pyrimidin-5-yl)-imidazolidin-2-one]
  EC50: 79 nM
  Emax: 52%

## CN1N(c2ccc(C#Cc3ccccc3)nc2)C(=O)CC1(C)C [Example 12, 1,5,5-Trimethyl-2-(6-phenylethynyl-pyridin-3-yl)-pyrazolidin-3-one]
  EC50: 40 nM
  Emax: 66%

## CN1N(c2ccc(C#Cc3cccc(F)c3)nc2)C(=O)CC1(C)C [Example 13, 2-[6-(3-Fluoro-phenylethynyl)-pyridin-3-yl]-1,5,5-trimethyl-pyrazolidin-3-one]
  EC50: 38 nM
  Emax: 63%

## CN1N(c2ccc(C#Cc3cc(F)ccc3F)nc2)C(=O)CC1(C)C [Example 14, 2-[6-(2,5-Difluoro-phenylethynyl)-pyridin-3-yl]-1,5,5-trimethyl-pyrazolidin-3-one]
  EC50: 53 nM
  Emax: 57%

## CC1(C)CC(=O)N(c2ccc(C#Cc3cccc(F)c3)nc2)N1 [Example 15, 2-[6-(3-Fluoro-phenylethynyl)-pyridin-3-yl]-5,5-dimethyl-pyrazolidin-3-one]
  EC50: 68 nM
  Emax: 38%

## CC1(C)CC(=O)N(c2ccc(C#Cc3cc(F)ccc3F)nc2)N1 [Example 16, 2-[6-(2,5-Difluoro-phenylethynyl)-pyridin-3-yl]-5,5-dimethyl-pyrazolidin-3-one]
  EC50: 40 nM
  Emax: 41%

Source: patent US8969338B2, “Ethynyl derivatives” (Hoffmann-La Roche Inc., priority 2011, dated 2015)
